Results published in patent US20110218215A1, “Compositions and Methods for Treating Social Anxiety” (priority 2010, published 2011).

Tested on: performance anxiety in the context of public speaking
Assay: Open clinical trial: oral doses taken before public speaking, subject self-reports
Type: in vivo, human
Details: Subject 2, 40 mg propranolol HCl alone
Source text: Subjects were selected based on their history of experiencing performance anxiety in the context of public speaking. Subjects received oral doses of the present composition, as described below, at various times prior to speaking engagements. The parameters assessed included but were not limited to the following: tremor of voice and hands, urinary and/or fecal urgency, tachycardia, anxiety, and side effects (e.g., dry mouth).

Structure (SMILES): CC(C)NCC(O)COc1cccc2ccccc12.Cl (racemic) [propranolol HCl, (RS)-1-(isopropylamino)-3-(1-naphthyloxy)propan-2-ol]
- fecal urgency (ninety minutes prior): did report fecal urgency
- quality of presentation (ninety minutes prior): less colorful and confident presentation
- voice tremor (ninety minutes prior): no tachycardia or voice tremor
- tachycardia (ninety minutes prior to public speaking): no tachycardia
